Our source for the IC50 values is patent US9708275B2, “Heterocyclic compounds and methods for their use” (Novartis AG, priority 2012, dated 2017).

By IC50 is commonly meant the concentration that gives 50% inhibition. Low readings indicate greater potency, high ones weaker potency.

Chain of AT2 receptor (P50052 whole entry, species assumed): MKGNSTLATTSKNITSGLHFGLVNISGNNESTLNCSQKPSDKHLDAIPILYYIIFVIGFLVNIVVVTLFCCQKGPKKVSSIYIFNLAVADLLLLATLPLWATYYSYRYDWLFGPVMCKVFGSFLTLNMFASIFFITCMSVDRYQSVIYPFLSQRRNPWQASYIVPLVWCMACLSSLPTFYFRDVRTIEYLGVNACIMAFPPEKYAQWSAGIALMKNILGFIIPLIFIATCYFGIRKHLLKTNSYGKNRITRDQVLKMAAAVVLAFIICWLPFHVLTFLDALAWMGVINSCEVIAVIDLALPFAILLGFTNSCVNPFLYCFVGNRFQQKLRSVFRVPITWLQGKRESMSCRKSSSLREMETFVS

This test has as its target AT2 receptor (Homo sapiens (Human), UniProt P50052). Briefly: AT2 receptor binding assay ([125I]-CGP42112A, HEK293/AT2 receptor cell membranes). The settings on record: displacement of [125I]-CGP42112A, RT 1.5 hrs. The procedure:
1. Trypsin-EDTA (for preparation of 100 mL) • Trypsin 0.25 g • 2% EDTA 2 mL • PBS 98 mL • Dissolve trypsin in 2% EDTA and PBS completely; sterilize the solution by passing through a […] membrane filter; store at 4° C.
2. DMEM medium (for preparation of 1 L) • The powder was dissolved into 950 mL of distilled water with gentle stirring until the solution becomes clear. • Add NaHCO3 1.176 g for DMEM medium. • Adjust pH of medium to 0.2-0.3 below final working pH using 1 M NaOH or 1 M HCl. Add slowly with stirring. • Dilute to 1 liter with ddH2O. • Sterilize the medium immediately by filtration. • Store at 4° C.
3. TE buffer • 20 mM Tris-HCl, pH 7.4, • 5 mM EDTA
4. Binding Assay Buffer • 50 mM Hepes, pH 7.4 • 5 mM MgCl2 • 1 mM CaCl2 • 0.2% BSA
5. Wash Buffer • 50 mM Hepes, pH 7.4 Procedures for HEK293/AT2 Receptor Transient Cell Transfection • Cells were plated into 150 mm dish at 50% density for transient transfection. Cells were ready for transfection after overnight incubation (the confluence reaches around 80%). • 75 μL Lipofectamine™2000 diluted in 6.25 mL OptiMEM I Reduced Serum Medium, was mixed gently, and incubated at room temperature for 5 minutes. 50 μg expression plasmid DNA diluted in 6.25 mL OptiMEM I Reduced Serum Medium without serum was mixed gently. • After the 5 minute incubation, the diluted DNA was combined with the diluted Lipofectamine™2000 (total volume is 12.5 mL). The mixture was mixed gently and incubated for 30 minutes at room temperature to allow the DNA-Lipofectamine™2000 complexes to form. • The 12.5 mL DNA-Lipofectamine™2000 complexes were added into the 150 mm dish and mixed gently by rocking the dish back and forth. • The cells were incubated at 37° C. with 5% CO2 for 48 hours. • Cells were collected and stored frozen at −80° C. Procedures for HEK293/AT2 Receptor Cell Membrane Preparation • Frozen HEK293/AT2 receptor (transient transfected) cells were homogenized in ice cold TE buffer for 10 s. • The homogenate was centrifuged at 25,000 g for 30 minutes. • The pellet was resuspended in ice cold tissue buffer. • Protein concentrations were determined using Bradford assay method with BSA as standard. • The membrane protein was frozen under −80° C. Compound Preparation
Solutions of all compounds were prepared by microplate liquid handling equipment such as Janus or Precision 2000. Compounds, dissolved in DMSO were stored in a Freezer. Compounds were prepared from 30 mM in 100% DMSO.
Step 1: Dose plate preparation (96 well plate)
• Add the 3 μL [30 mM] compound stock to column 1 on the plate. • Add 15 μL of 100% DMSO to column 1. • Add 10.81 μL of 100% DMSO to column 2-12. • Transfer 5 μL from column 1 into column 2 (half log dilution). • Transfer 5 μL from column 2 into column 3 (half log dilution). • Transfer 5 μL from column 3 into column 4 (half log dilution). • Transfer 5 μL from column 4 into column 5 (half log dilution). • Transfer 5 μL from column 5 into column 6 (half log dilution). • Transfer 5 μL from column 6 into column 7 (half log dilution). • Transfer 5 μL from column 7 into column 8 (half log dilution). • Transfer 5 μL from column 8 into column 9 (half log dilution). • Transfer 5 μL from column 9 into column 10 (half log dilution) • Transfer 5 μL from column 10 into column 11 (half log dilution) • Transfer 5 μL from column 11 into column 12 (half log dilution).
All the compounds were diluted using Precision 2000 microplate liquid handling equipment. The top concentration of compound was 5 mM with 100% DMSO.
Step 2: Working plate preparation (96 well plate)
• Compounds were diluted 50-fold with buffer. • 49 μL buffer was added to the well of 96 well plate. • 1 μL compound solution from dose plate was transferred to the corresponding well of working plate. • The top concentration of compound was 100 μM with 2% DMSO. Step 3: Assay plate preparation (96 well plate)
15 μL of compound solution was transferred from each well of working plate to the well of assay plate by Janus. […]
(Displacement assays read how much labelled ligand stays bound in the presence of the test substance.)
Consider `O=C(O)[C@@H]1CN(c2ccccc2)CCN1C(=O)C(c1ccccc1)c1ccccc1` [Compound 4, (S)-1-(2,2-diphenylacetyl)-4-phenylpiperazine-2-carboxylic acid], for which the IC50 was found to be 408 nM.
Turning to `O=C(O)[C@@H]1CN(Cc2ccccc2)CCN1C(=O)C(c1ccccc1)c1ccccc1` [Compound 5, (S)-4-benzyl-1-(2,2-diphenylacetyl)piperazine-2-carboxylic acid], the IC50 was 383 nM. This IC50 and that of the molecule before are within 1.5-fold of each other.
`O=C(O)[C@@H]1CN(c2cc(-c3ccccc3)n(-c3ccccc3)n2)CCN1C(=O)C(c1ccccc1)c1ccccc1` [Compound 6, (S)-4-(1,5-diphenyl-1H-pyrazol-3-yl)-1-(2,2-diphenylacetyl)-piperazine-2-carboxylic acid]: the IC50 is 3040 nM. This IC50 lies about 7.9-fold higher than the previous one.
Consider `Cc1cc(N2CCN(C(=O)C(c3ccccc3)c3ccccc3)[C@H](C(=O)O)C2)n(-c2ccccc2)n1` [Compound 7, (3)-1-(2,2-diphenylacetyl)-4-(3-methyl-1-phenyl-1H-pyrazol-5-yl)piperazine-2-carboxylic acid], for which the 50% inhibitory concentration (IC50) turned out to be 155 nM.
For the molecule `O=C(O)[C@@H]1CN(CCc2ccccc2)CCN1C(=O)C(c1ccccc1)c1ccccc1` [Compound 8, (S)-1-(2,2-diphenylacetyl)-4-phenethylpiperazine-2-carboxylic acid], the IC50 is 1270 nM.
With `O=C(O)[C@@H]1CN(C/C=C/c2ccccc2)CCN1C(=O)C(c1ccccc1)c1ccccc1` [Compound 9, (S)-4-cinnamyl-1-(2,2-diphenylacetyl)piperazine-2-carboxylic acid] the figure was 4100 nM; with `O=C(O)[C@@H]1CN(CCCc2ccccc2)CCN1C(=O)C(c1ccccc1)c1ccccc1` [Compound 10, (S)-1-(2,2-diphenylacetyl)-4-(3-phenylpropyl)piperazine-2-carboxylic acid], 517 nM; with `Cc1cc(N2CCN(C(=O)C(c3ccccc3)c3ccccc3)[C@H](C(=O)O)C2)n(Cc2ccccc2)n1` [Compound 16, (S)-4-(1-benzyl-3-methyl-1H-pyrazol-5-yl)-1-(2,2-diphenylacetyl)piperazine-2-carboxylic acid], 40.3 nM.
Consider `O=C(O)[C@@H]1CN(c2cc(C(F)(F)F)nn2Cc2ccccc2)CCN1C(=O)C(c1ccccc1)c1ccccc1` [Compound 23, (S)-4-(1-benzyl-3-(-trifluoromethyl)-1H-pyrazol-5-yl)-1-(2,2-diphenylacetyl)piperazine-2-carboxylic acid], for which the 50% inhibitory concentration (IC50) came out at 93.8 nM. This IC50 lies about 2.3-fold higher than the previous one.
As to `O=C(O)[C@@H]1CN(CC#Cc2ccccc2)CCN1C(=O)C(c1ccccc1)c1ccccc1` [Compound 24, (S)-1-(2,2-diphenylacetyl)-4-(3-phenylprop-2-yn-1-yl)piperazine-2-carboxylic acid], the IC50 is 4160 nM.
Take `O=C(O)[C@@H]1CN(CCC#Cc2ccccc2)CCN1C(=O)C(c1ccccc1)c1ccccc1` [Compound 26, (S)-1-(2,2-diphenylacetyl)-4-(4-phenylbut-3-yn-1-yl)piperazine-2-carboxylic acid]: the IC50 turned out to be 1320 nM.
